Broadly, the GI50 is the concentration at which growth is held to half of that of the control. One may read the TGI as the concentration at which net growth stops.

Results on 26 molecules are retold here after PubChem BioAssay (NCI).

Test systems include MCF7 breast; BT-549 breast; DMS 273 small cell lung; HOP-18 NSCLC; LXFL 529 NSCLC; MDA-N; XF 498 CNS; M19-MEL melanoma.
Holding throughout (experiment): DTP human tumour cell line panel, 48 h

Each structure is given as a SMILES string. Several values for one entry are separate records, joined by “and”; a condition that tells them apart may be missing. Equal entries are not always repeated.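 All cell lines were grown in 96-well plates and treated with compound for 48 hours. GI50: concentration for 50% inhibition of growth. Definition used: TGI = concentration required for complete inhibition of growth.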

`COc1ccc2nc(N/N=C(\C)c3ccccn3)cc(C)c2c1`: in the experiment on MCF7 breast, the GI50 was 0.288 µM and the TGI is 1.07 µM. In the experiment with BT-549 breast, the 50% growth inhibitory concentration (GI50) was 0.168 µM and the total growth inhibition concentration (TGI) amounted to 1.96 µM.

On to `CCC[CH2][Sn-]([CH2]CCC)([CH2]CCC)[O]c1cc(Cl)c(Cl)cc1Cl`, for which, in the experiment on MCF7 breast, the GI50 was 0.237 µM and the TGI was 0.887 µM.

Take `COc1cc(/C(C#N)=C/c2ccc3c(c2OC)OCO3)cc2c1OCO2`: in the experiment on MCF7 breast, the concentration for 50% growth inhibition (GI50) is 0.0482 µM and the TGI is greater than 100 µM. In the experiment on BT-549 breast, the GI50 was 0.669 µM and the TGI amounted to 29.3 µM.

In the case of `CS(=O)(=O)CCNCc1nc(-c2ccc3ncnc(Nc4ccc(F)c(Cl)c4)c3c2)cs1`, in the experiment on MCF7 breast, the GI50 is greater than 23.3 µM and the total growth inhibition concentration (TGI) was greater than 25 µM. Also, in the experiment on BT-549 breast, the GI50 is greater than 25 µM and the concentration for total growth inhibition (TGI) is greater than 25 µM.

Take `COC(=O)N[C@H]1CCc2c(Br)c(OC)c(OC)c(OC)c2-c2ccc(SC)c(=O)cc21`: in the experiment with MCF7 breast, the GI50 was less than 0.01 µM and the TGI came to 12.4 µM. Further, in the experiment on BT-549 breast, the GI50 was less than 0.01 µM and the TGI was 14.9 µM.

With `O=C(CN1CCN(c2ncccn2)CC1)Nc1ccc(Cl)cc1C(=O)c1ccccc1Cl`, in the experiment with MCF7 breast, the GI50 was 83.3 µM and the TGI was greater than 100 µM. In the experiment on BT-549 breast, the GI50 was greater than 100 µM and the TGI was greater than 100 µM.

Take `CNC(P(=O)([O-])[O-])P(=O)([O-])[O-].N.N.[Pt+2]`: the GI50 in the experiment with DMS 273 small cell lung, with HOP-18 NSCLC and with LXFL 529 NSCLC was greater than 100 µM in each case. In addition, the TGI with DMS 273 small cell lung, in the experiment on HOP-18 NSCLC and with LXFL 529 NSCLC was greater than 100 µM each time.

Consider `COc1ccc(Cl)cc1Nc1nc(C(F)(F)F)ccc1C(=O)N/N=C/c1c(Cl)cccc1Cl`, for which, in the experiment with BT-549 breast, the GI50 was 1.2 µM and the TGI was found to be 6.84 µM.

For `O=P(O)(CCP(=O)(O)c1ccccc1)c1ccccc1`, the TGI with MCF7 breast, in the experiment with BT-549 breast and in the experiment on MDA-N was greater than 100 µM throughout.

`CCOc1cc2ncc(C#N)c(Nc3ccc(OCc4cccc(F)c4)c(Cl)c3)c2cc1NC(=O)CC1CCSS1` (centres undefined): in the experiment on BT-549 breast, the GI50 was 1.87 µM and the TGI was greater than 25 µM.

On to `CC(=O)n1c(COS(C)(=O)=O)nc2ccccc21`, for which the TGI with MCF7 breast, in the experiment on BT-549 breast and with MDA-N was greater than 100 µM throughout.

Regarding `O=[N+]([O-])C1C(c2ccccc2)C12c1ccccc1-c1ccccc12` (centres undefined), in the experiment with MCF7 breast, the GI50 was 0.351 µM and the TGI is 30.8 µM. Besides, in the experiment with BT-549 breast, the GI50 was 0.543 µM and the TGI is 7.32 µM.

As to `CNC(=O)c1cc(OC2CCC(NC(=O)Nc3ccc(Cl)c(C(F)(F)F)c3)CC2)ccn1` (centres undefined), in the experiment on MCF7 breast, the GI50 is 3.48 µM and the TGI came out at 18.1 µM. Also, in the experiment with BT-549 breast, the GI50 was 7.8 µM and the TGI came to 23.6 µM.

Take `CN1CC[C@@H](c2c(O)cc(O)c3c(=O)cc(-c4ccccc4Cl)oc23)[C@@H](O)C1`: the TGI with DMS 273 small cell lung is 0.32 µM; in the experiment on XF 498 CNS, 0.533 µM; in the experiment with MCF7 breast, greater than 77.4 µM; in the experiment with MDA-N, 0.349 µM and 0.148 µM; in the experiment on LXFL 529 NSCLC, greater than 68.6 µM. Moreover, the GI50 with MCF7 breast was 0.0629 µM and 0.046 µM; in the experiment with BT-549 breast it was 0.171 µM and 0.178 µM; in the experiment on MDA-N, 0.124 µM and 0.0494 µM.

As for `CC(=O)Nc1ccc2c(c1)c(C1=C(c3cn(C)c4ccccc34)C(=O)NC1=O)cn2C`, in the experiment on MCF7 breast, the GI50 was 0.852 µM and the TGI is greater than 15.7 µM. In addition, in the experiment on BT-549 breast, the GI50 is 1.55 µM and the TGI was 14.8 µM.

On to `Cc1nc2c(nc1C)C(=O)c1cc(O)ccc1C2=O`, for which the TGI with DMS 273 small cell lung was greater than 100 µM; in the experiment with HOP-18 NSCLC, greater than 100 µM; in the experiment on M19-MEL melanoma it was 22.3 µM; in the experiment with LXFL 529 NSCLC, greater than 100 µM.

Consider `C=C1CC2(OC1=O)C(=O)N(CCCCCCCN1C(=O)C3(CC(=C)C(=O)O3)c3ccccc31)c1ccccc12` (centres undefined), for which, in the experiment on MCF7 breast, the GI50 was 1.35 µM and the TGI is 6.9 µM. In the experiment on BT-549 breast, the GI50 was 2.22 µM and the TGI is 9.14 µM.

Turning to `CCOC(=O)c1c2c(n3ccc(NC(=O)CCN4CCCC4)cc13)C(=O)c1ncccc1C2=O`, in the experiment on BT-549 breast, the GI50 was 1.54 µM and the TGI was found to be 3.64 µM.

For `CN1CCN(CN2C(=O)C3C4C=CC(C3C2=O)C2C3C(=O)N(CN5CCN(C)CC5)C(=O)C3C42)CC1` (centres undefined), the total growth inhibition concentration (TGI) in the experiment with DMS 273 small cell lung is 39.4 µM and 30.9 µM and 10.6 µM; with HOP-18 NSCLC, 71 µM and 34.4 µM and > 100 µM; in the experiment on MCF7 breast, greater than 100 µM; in the experiment on BT-549 breast it was 69.6 µM; in the experiment on MDA-N it was 32.5 µM; with LXFL 529 NSCLC it was 35.9 µM and 32.7 µM and 57.3 µM. The GI50 in the experiment on HOP-18 NSCLC is 34.4 µM and 13 µM and 48.6 µM.

Regarding `COc1cccc(C2CC(C)(N3CCCC3)Oc3cc4c(cc32)OCO4)c1O` (centres undefined), the figures for the TGI in the experiment with MCF7 breast, in the experiment with BT-549 breast and in the experiment with MDA-N were greater than 91.2 µM, 87.7 µM and 10.7 µM, respectively.

Turning to `COc1ccc(N=C2CSc3nnc(-c4cc(F)c(Cl)cc4Cl)n3N2)cc1`, in the experiment with MCF7 breast, the GI50 is 0.464 µM and the total growth inhibition concentration (TGI) turned out to be 19.8 µM. In addition, in the experiment with BT-549 breast, the GI50 was 1.77 µM and the TGI worked out at 24.4 µM.

For the molecule `Cc1cc(-c2ncc(CC(=O)Nc3ccc(-c4cnccn4)cn3)cc2C)ccn1`, in the experiment with MCF7 breast, the GI50 is 19.1 µM and the TGI was greater than 100 µM.

On to `O=[N+]([O-])c1ccc(C(c2c[nH]c3ccccc23)c2c[nH]c3ccccc23)cc1`, for which the TGI in the experiment on MCF7 breast is 7.4 µM; with BT-549 breast, 14.3 µM; in the experiment with MDA-N, 27.5 µM.

`O=C(CNc1nncs1)NO`: the TGI in the experiment with DMS 273 small cell lung, in the experiment on HOP-18 NSCLC, with M19-MEL melanoma and in the experiment on LXFL 529 NSCLC was greater than 100 µM in each case.

With `COc1nc(N(C)O)nc(N(C)O)n1`, the GI50 is 2.07 µM in the experiment on MCF7 breast and 3.16 µM in the experiment with BT-549 breast. In addition, the concentration for total growth inhibition (TGI) with MCF7 breast and with BT-549 breast was greater than 100 µM throughout.

Turning to `COc1cc(C2C=C(c3cccc(NC(C)=O)c3)Nc3ncnn32)cc(OC)c1OC` (centres undefined), in the experiment with MCF7 breast, the GI50 was 0.317 µM and the TGI was greater than 100 µM. In the experiment on BT-549 breast, the GI50 was 1.07 µM and the TGI is greater than 100 µM.
